SMILES strings stand for the structures.

The source of these data is ChEMBL document CHEMBL3132772 (Medchemcomm, 2014).

For one series, the target named is Trypsin (Homo sapiens, UniProt P07477+P07478+P35030). Nature of the series: Inhibition of trypsin (unknown origin) using S-2222 as substrate after 15 mins by spectrophotometry. The series is classed as protein assay.
Another series addresses Prothrombin (Homo sapiens, UniProt P00734). Nature of the series: Inhibition of thrombin (unknown origin) using S-2238 as substrate after 15 mins by spectrophotometry.
The next series has as its target Coagulation factor X (Homo sapiens, UniProt P00742). Nature of the series: Inhibition of factor 10a (unknown origin) using S-2222 as substrate after 15 mins by spectrophotometry.
A short description of series [1]: Metabolic stability in human plasma assessed as compound remaining at […] after 4 hrs by HPLC analysis. The series is classed as ADME, cell-free. To be noted: read-out: Stability.

Chain of Coagulation factor X (P00742 41-179 limits assumed): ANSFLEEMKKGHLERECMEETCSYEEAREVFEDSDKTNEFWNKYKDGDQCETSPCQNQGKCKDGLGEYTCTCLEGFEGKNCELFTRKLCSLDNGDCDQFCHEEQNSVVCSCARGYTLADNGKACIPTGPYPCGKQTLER
Chain of Coagulation factor X (P00742 235-488 limits assumed): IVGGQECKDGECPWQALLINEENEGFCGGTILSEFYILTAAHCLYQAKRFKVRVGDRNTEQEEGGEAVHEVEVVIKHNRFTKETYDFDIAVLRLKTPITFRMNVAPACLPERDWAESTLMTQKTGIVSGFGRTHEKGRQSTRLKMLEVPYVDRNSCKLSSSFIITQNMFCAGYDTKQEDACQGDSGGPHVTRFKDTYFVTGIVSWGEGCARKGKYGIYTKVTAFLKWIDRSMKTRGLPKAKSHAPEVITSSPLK

The term Ki denotes a measure of affinity in units of concentration, obtained from inhibition or displacement. On to `O=C(NC[C@H]1CN(c2ccc(N3CCCC(C(=O)O)C3)cc2)C(=O)O1)c1ccc(Cl)s1` (mixture of isomers), for which the inhibitory constant (Ki) on Trypsin is greater than 100 µM; on Prothrombin it was 17.6 µM; on Coagulation factor X, 1.22 µM.
As to `CCOC(=O)C1CCN(c2ccc(N3C[C@H](CNC(=O)c4ccc(Cl)s4)OC3=O)cc2)CC1` (mixture of isomers), the Ki was greater than 100 µM at Trypsin, greater than 100 µM at Prothrombin and 0.769 µM at Coagulation factor X. Besides, the remaining at 4 h in series [1] is 95%.
Take `CCOC(=O)C1CCN(c2ccc(N3C[C@H](CNC(=O)c4ccc(Cl)s4)OC3=O)cc2)C(=O)C1` (mixture of isomers): the Ki on Trypsin was greater than 100 µM; on Prothrombin, greater than 100 µM; on Coagulation factor X it was 0.0219 µM.
In the case of `O=C(NC[C@H]1CN(c2ccc(N3CCC(C(=O)O)CC3=O)cc2)C(=O)O1)c1ccc(Cl)s1` (mixture of isomers), the results for the Ki at Trypsin, on Prothrombin and on Coagulation factor X were greater than 100 µM, 69.6 µM and 0.337 µM, respectively.
For `CCOC(=O)C1CCCCN1c1ccc(N2C[C@H](CNC(=O)c3ccc(Cl)s3)OC2=O)cc1` (mixture of isomers), the values for the Ki at Trypsin, on Prothrombin and at Coagulation factor X were greater than 100 µM, 0.353 µM and 0.0622 µM, respectively. Further, the remaining at 4 h in series [1] was 100%.
`O=C(NC[C@H]1CN(c2ccc(N3CCC(C(=O)O)CC3)cc2)C(=O)O1)c1ccc(Cl)s1` (mixture of isomers): the figures for the Ki on Trypsin, at Prothrombin and at Coagulation factor X were greater than 100 µM, 16.6 µM and 0.0887 µM, respectively.
Taken in the same sequence, the figures for `CCOC(=O)C1CCCN(c2ccc(N3C[C@H](CNC(=O)c4ccc(Cl)s4)OC3=O)cc2)C1` (mixture of isomers) were greater than 100 µM, greater than 100 µM and 0.0624 µM.
